From patent publication US9850283B2, “Macrocyclic inhibitors of the PD-1/PD-L1 and CD80(B7-1)/PD-L1 protein/protein interactions” (BRISTOL-MYERS SQUIBB COMPANY, priority 2013, dated 2017)
Positions of bridges follow the written chain, without caps; N, C: chain ends. Non-standard residues stand in square brackets, D forms with d. Residues, ends and D or L forms follow the SMILES beside them. ξ: configuration not given here. Phe(4-SO2NH2) = N[C@@H](Cc1ccc(S(N)(=O)=O)cc1)C(=O)O; Phe(3,4-(OMe)2) = COc1ccc(C[C@H](N)C(=O)O)cc1OC; Phe(3-OMe) = COc1cccc(C[C@H](N)C(=O)O)c1; Phe(3-Me) = Cc1cccc(C[C@H](N)C(=O)O)c1; Bta = N[C@@H](Cc1csc2ccccc12)C(=O)O; Hyp = O=C(O)[C@@H]1C[C@@H](O)CN1; NMeNle = CCCC[C@H](NC)C(=O)O; Pen = CC(C)(S)[C@H](N)C(=O)O; ξY = NC(Cc1ccc(O)cc1)C(=O)O; NMeS = CN[C@@H](CO)C(=O)O; NMeA = CN[C@@H](C)C(=O)O; Dap = NC[C@H](N)C(=O)O; ξP = O=C(O)C1CCCN1; Sar = CNCC(=O)O

Legend:
Human PD-L1/PD-1 = molecular target: T1, Human PD-L1/PD-1 (Homo sapiens, UniProt Q9NZQ7); assay: HTRF PD-1-Ig/PD-L1-His binding assay (human PD-L1); conditions: cluster symbol; read-out: HTRF IC50 cluster
T1 construct: made in house; host or cells: HEK293T
T1 sequence (Q9NZQ7 with tags, fused parts or gaps): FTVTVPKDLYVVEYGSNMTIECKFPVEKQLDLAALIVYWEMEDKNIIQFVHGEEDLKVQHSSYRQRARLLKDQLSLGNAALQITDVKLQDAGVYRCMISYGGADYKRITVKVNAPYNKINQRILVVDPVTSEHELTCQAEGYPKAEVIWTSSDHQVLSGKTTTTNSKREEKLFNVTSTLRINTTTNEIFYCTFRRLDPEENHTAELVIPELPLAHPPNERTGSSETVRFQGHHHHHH
In short: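 Soluble Fc-fused PD-1 and His-tagged PD-L1 (truncated before the transmembrane region) were combined in dPBS with 0.1% (w/v) BSA and 0.05% (v/v) Tween-20. Binding was read by HTRF using europium cryptate anti-Ig antibody (1 nM final) and APC anti-His antibody (20 nM final).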

[1] = molecular target: T2, LK35.2-hPD-L1 cells / PE-labeled PD-1-Ig (Homo sapiens, UniProt Q9NZQ7); assay: LK35.2-hPD-L1 cell binding high-content screening assay; format: cell-based; conditions: cluster symbol; cell line of CBA not given (LK35.2-hPD-L1 or 293T-hPD-L1); read-out: CBA IC50 cluster
T2 construct: expressed in transfected cells; host or cells: LK35.2 mouse B cell line
T2 sequence (Q9NZQ7 19-290): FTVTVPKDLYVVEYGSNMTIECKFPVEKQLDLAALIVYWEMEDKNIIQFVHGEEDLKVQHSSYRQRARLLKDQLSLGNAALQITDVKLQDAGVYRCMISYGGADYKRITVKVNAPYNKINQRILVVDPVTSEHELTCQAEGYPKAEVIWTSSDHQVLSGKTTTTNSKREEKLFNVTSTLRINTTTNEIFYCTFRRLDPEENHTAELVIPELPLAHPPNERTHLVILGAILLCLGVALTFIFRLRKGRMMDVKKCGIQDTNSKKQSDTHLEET
In short: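 Readout: high-content imaging of PE-PD-1-Ig bound to LK35.2-hPD-L1 cells. Cells plated overnight (RPMI/10% FCS); compound + 1 nM PE-PD-1-Ig, 1 h, 37 °C; 3× dPBS wash before imaging.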

Structure (SMILES) | IC50 (Human PD-L1/PD-1) [nM] | IC50 [1] [nM]
CCCC[C@H]1C(=O)N(C)[C@@H](CCCC)C(=O)N[C@@H](CCCNC(=N)N)C(=O)N[C@H](C(=O)NCC(N)=O)CSCC(=O)N[C@@H](Cc2ccccc2)C(=O)N(C)[C@@H](C)C(=O)N[C@@H](CC(N)=O)C(=O)N2CCC[C@H]2C(=O)N[C@@H](Cc2cnc[nH]2)C(=O)N[C@@H](CC(C)C)C(=O)N(C)CC(=O)N[C@@H](Cc2c[nH]c3ccccc23)C(=O)N(C)[C@@H](CO)C(=O)N[C@@H](Cc2c[nH]c3ccccc23)C(=O)N1C [Example 1078] ({CH2CO}-F[NMeA]NPHL[Sar]W[NMeS]W[NMeNle][NMeNle]RCG-NH2; thioether N-14) | > 30.5 | > 74.3
CCCC[C@H]1C(=O)N(C)[C@@H](CCCC)C(=O)N[C@@H](CCCNC(=N)N)C(=O)N[C@H](C(=O)NCC(N)=O)CSCC(=O)N[C@@H](Cc2ccccc2)C(=O)N(C)[C@@H](C)C(=O)N[C@@H](CC(N)=O)C(=O)N2CCC[C@H]2C(=O)N[C@@H](Cc2cnc[nH]2)C(=O)N[C@@H](CC(C)C)C(=O)N(C)CC(=O)N[C@@H](Cc2ccc(OC)c(OC)c2)C(=O)N[C@@H](CO)C(=O)N[C@@H](Cc2c[nH]c3ccccc23)C(=O)N1C [Example 1080] ({CH2CO}-F[NMeA]NPHL[Sar][Phe(3,4-(OMe)2)]SW[NMeNle][NMeNle]RCG-NH2; thioether N-14) | > 30.5 | > 74.3
CCCC[C@H]1C(=O)N(C)[C@@H](CCCC)C(=O)N[C@@H](CCCNC(=N)N)C(=O)N[C@H](C(=O)NCC(N)=O)CSCC(=O)N[C@@H](Cc2ccccc2)C(=O)N(C)[C@@H](C)C(=O)N[C@H](C)C(=O)N2CCC[C@H]2C(=O)N[C@@H](Cc2cnc[nH]2)C(=O)N[C@@H](CC(C)C)C(=O)N(C)CC(=O)N[C@@H](Cc2c[nH]c3ccccc23)C(=O)N[C@@H](CO)C(=O)N[C@@H](Cc2c[nH]c3ccccc23)C(=O)N1C [Example 1081] ({CH2CO}-F[NMeA][dA]PHL[Sar]WSW[NMeNle][NMeNle]RCG-NH2; thioether N-14) | > 30.5 | > 74.3
CCCC[C@H]1C(=O)N(C)[C@@H](CCCC)C(=O)N[C@@H](CCCNC(=N)N)C(=O)N[C@H](C(=O)NCC(N)=O)CSCC(=O)N[C@@H](Cc2ccccc2)C(=O)N(C)[C@@H](C)C(=O)N[C@@H](CC(C)C)C(=O)N2CCC[C@H]2C(=O)N[C@@H](Cc2cnc[nH]2)C(=O)N[C@@H](CC(C)C)C(=O)N(C)CC(=O)N[C@@H](Cc2c[nH]c3ccccc23)C(=O)N[C@@H](CO)C(=O)N[C@@H](Cc2c[nH]c3ccccc23)C(=O)N1C [Example 1082] ({CH2CO}-F[NMeA]LPHL[Sar]WSW[NMeNle][NMeNle]RCG-NH2; thioether N-14) | > 30.5 | > 74.3
CCCC[C@H]1C(=O)N(C)[C@@H](CCCC)C(=O)N[C@@H](CCCNC(=N)N)C(=O)N[C@H](C(=O)NCC(N)=O)CSCC(=O)N[C@@H](Cc2ccccc2)C(=O)N(C)[C@@H](C)C(=O)N[C@@H](CC(N)=O)C(=O)N2CCC[C@H]2C(=O)N[C@@H](Cc2cnc[nH]2)C(=O)N[C@@H](CC(C)C)C(=O)N(C)CC(=O)N[C@@H](Cc2cccc(OC)c2)C(=O)N[C@@H](CO)C(=O)N[C@@H](Cc2c[nH]c3ccccc23)C(=O)N1C [Example 1085] ({CH2CO}-F[NMeA]NPHL[Sar][Phe(3-OMe)]SW[NMeNle][NMeNle]RCG-NH2; thioether N-14) | > 30.5 | > 74.3
CCCC[C@H]1C(=O)N(C)[C@@H](CCCC)C(=O)N[C@@H](CCCNC(=N)N)C(=O)N[C@H](C(=O)NCC(N)=O)CSCC(=O)N[C@@H](Cc2ccccc2)C(=O)N(C)[C@@H](C)C(=O)N[C@@H](CC(N)=O)C(=O)N2CCC[C@H]2C(=O)N[C@@H](Cc2cnc[nH]2)C(=O)N[C@@H](CC(C)C)C(=O)N(C)CC(=O)N[C@@H](Cc2cccc(C)c2)C(=O)N[C@@H](CO)C(=O)N[C@@H](Cc2c[nH]c3ccccc23)C(=O)N1C [Example 1086] ({CH2CO}-F[NMeA]NPHL[Sar][Phe(3-Me)]SW[NMeNle][NMeNle]RCG-NH2; thioether N-14) | > 30.5 | > 74.3
CCCC[C@H]1C(=O)N(C)[C@@H](CCCC)C(=O)N[C@@H](CCCNC(=N)N)C(=O)N[C@H](C(=O)NCC(N)=O)CSCC(=O)N[C@@H](Cc2ccccc2)C(=O)N(C)[C@@H](C)C(=O)N[C@@H](CCC(N)=O)C(=O)N2CCC[C@H]2C(=O)N[C@@H](Cc2cnc[nH]2)C(=O)N[C@@H](CC(C)C)C(=O)N(C)CC(=O)N[C@@H](Cc2c[nH]c3ccccc23)C(=O)N[C@@H](CO)C(=O)N[C@@H](Cc2c[nH]c3ccccc23)C(=O)N1C [Example 1089] ({CH2CO}-F[NMeA]QPHL[Sar]WSW[NMeNle][NMeNle]RCG-NH2; thioether N-14) | > 30.5 | > 74.3
CCCC[C@H]1C(=O)N(C)[C@@H](CCCC)C(=O)N[C@@H](CCCNC(=N)N)C(=O)N[C@H](C(=O)NCC(N)=O)CSCC(=O)N[C@@H](Cc2ccccc2)C(=O)N(C)[C@@H](C)C(=O)N[C@@H](CC(=O)O)C(=O)N2CCC[C@H]2C(=O)N[C@@H](Cc2cnc[nH]2)C(=O)N[C@@H](CC(C)C)C(=O)N(C)CC(=O)N[C@@H](Cc2c[nH]c3ccccc23)C(=O)N[C@@H](CO)C(=O)N[C@@H](Cc2c[nH]c3ccccc23)C(=O)N1C [Example 1092] ({CH2CO}-F[NMeA]DPHL[Sar]WSW[NMeNle][NMeNle]RCG-NH2; thioether N-14) | 6.76 to 30.3 | 4.78 to 72.9
CCCC[C@H]1C(=O)N(C)[C@@H](CCCC)C(=O)N[C@@H](CCCNC(=N)N)C(=O)N[C@H](C(=O)NCC(N)=O)CSCC(=O)N[C@@H](Cc2ccc(S(N)(=O)=O)cc2)C(=O)N(C)[C@@H](C)C(=O)N[C@@H](CC(N)=O)C(=O)N2CCC[C@H]2C(=O)N[C@@H](Cc2cnc[nH]2)C(=O)N[C@@H](CC(C)C)C(=O)N(C)CC(=O)N[C@@H](Cc2c[nH]c3ccccc23)C(=O)N[C@@H](CO)C(=O)N[C@@H](Cc2c[nH]c3ccccc23)C(=O)N1C [Example 1093] ({CH2CO}-[Phe(4-SO2NH2)][NMeA]NPHL[Sar]WSW[NMeNle][NMeNle]RCG-NH2; thioether N-14) | > 30.5 | > 74.3

Next, values leading:

IC50 (Human PD-L1/PD-1) [nM] | IC50 [1] [nM] | Structure (SMILES)
0.385 to 6.74 | 4.78 to 72.9 | CCCC[C@H]1C(=O)N(C)[C@@H](CCCC)C(=O)N[C@@H](CCCNC(=N)N)C(=O)N[C@H](C(=O)NCC(N)=O)C(C)(C)SCC(=O)N[C@@H](Cc2ccccc2)C(=O)N(C)[C@@H](C)C(=O)N[C@@H](CC(N)=O)C(=O)N2CCC[C@H]2C(=O)N[C@@H](Cc2cnc[nH]2)C(=O)N[C@@H](CC(C)C)C(=O)N(C)CC(=O)N[C@@H](Cc2c[nH]c3ccccc23)C(=O)N[C@@H](CO)C(=O)N[C@@H](Cc2c[nH]c3ccccc23)C(=O)N1C [Example 1083] ({CH2CO}-F[NMeA]NPHL[Sar]WSW[NMeNle][NMeNle]R[Pen]G-NH2; thioether N-14)
0.385 to 6.74 | 0.158 to 4.71 | CCCC[C@H]1C(=O)N(C)[C@@H](CCCC)C(=O)N[C@@H](CCCNC(=N)N)C(=O)N[C@H](C(=O)NCC(N)=O)CSCC(=O)N[C@@H](Cc2ccc(O)cc2)C(=O)N(C)[C@@H](C)C(=O)N[C@@H](CC(N)=O)C(=O)N2CCC[C@H]2C(=O)N[C@@H](CN)C(=O)N[C@@H](CC(C)C)C(=O)N2CCC[C@H]2C(=O)N[C@@H](Cc2c[nH]c3ccccc23)C(=O)N[C@@H](CO)C(=O)N[C@@H](Cc2csc3ccccc23)C(=O)N1C [Example 1084] ({CH2CO}-Y[NMeA]NP[Dap]LPWS[Bta][NMeNle][NMeNle]RCG-NH2; thioether N-14)
0.385 to 6.74 | 0.158 to 4.71 | CCCC[C@H]1C(=O)N(C)[C@@H](CCCC)C(=O)N[C@@H](CCCNC(=N)N)C(=O)N[C@H](C(=O)NCC(N)=O)CSCC(=O)N[C@@H](Cc2ccccc2)C(=O)N(C)[C@@H](C)C(=O)N[C@@H](CC(N)=O)C(=O)N2CCC[C@H]2C(=O)N[C@@H](Cc2cnc[nH]2)C(=O)N[C@@H](CC(C)C)C(=O)N2C[C@H](O)C[C@H]2C(=O)N[C@@H](Cc2c[nH]c3ccccc23)C(=O)N[C@@H](CO)C(=O)N[C@@H](Cc2c[nH]c3ccccc23)C(=O)N1C [Example 1087] ({CH2CO}-F[NMeA]NPHL[Hyp]WSW[NMeNle][NMeNle]RCG-NH2; thioether N-14)
6.76 to 30.3 | 4.78 to 72.9 | CCCC[C@H]1C(=O)N(C)[C@@H](CCCC)C(=O)N[C@@H](CCCNC(=N)N)C(=O)N[C@H](C(=O)NCC(N)=O)CSCC(=O)N[C@@H](Cc2ccccc2)C(=O)N(C)[C@@H](C)C(=O)N[C@@H](CC(N)=O)C(=O)N2CCC[C@H]2C(=O)N[C@@H](CO)C(=O)N[C@@H](CC(C)C)C(=O)N(C)CC(=O)N[C@@H](Cc2c[nH]c3ccccc23)C(=O)N[C@@H](CO)C(=O)N[C@@H](Cc2c[nH]c3ccccc23)C(=O)N1C [Example 1088] ({CH2CO}-F[NMeA]NPSL[Sar]WSW[NMeNle][NMeNle]RCG-NH2; thioether N-14)
0.385 to 6.74 | 0.158 to 4.71 | CCCC[C@H]1C(=O)N(C)[C@@H](CCCC)C(=O)N[C@@H](CCCNC(=N)N)C(=O)N[C@H](C(=O)NCC(N)=O)CSCC(=O)N[C@@H](Cc2ccc(O)cc2)C(=O)N(C)[C@@H](C)C(=O)N[C@@H](CC(N)=O)C(=O)N2CCC[C@H]2C(=O)N[C@@H](Cc2cnc[nH]2)C(=O)N[C@@H](CCC(=O)O)C(=O)N2CCC[C@H]2C(=O)N[C@@H](Cc2c[nH]c3ccccc23)C(=O)N[C@@H](CO)C(=O)N[C@@H](Cc2c[nH]c3ccccc23)C(=O)N1C [Example 1090] ({CH2CO}-Y[NMeA]NPHEPWSW[NMeNle][NMeNle]RCG-NH2; thioether N-14)
0.385 to 6.74 | 0.158 to 4.71 | CCCC[C@H]1C(=O)N(C)[C@@H](CCCC)C(=O)N[C@@H](CCCNC(=N)N)C(=O)N[C@H](C(=O)NCC(N)=O)CSCC(=O)NC(Cc2ccc(O)cc2)C(=O)N(C)[C@@H](C)C(=O)N[C@@H](CC(N)=O)C(=O)N2CCCC2C(=O)N[C@@H](CN)C(=O)N[C@@H](CCC(=O)O)C(=O)N2CCC[C@H]2C(=O)N[C@@H](Cc2c[nH]c3ccccc23)C(=O)N[C@@H](CO)C(=O)N[C@@H](Cc2c[nH]c3ccccc23)C(=O)N1C (stereo partly drawn) [Example 1091] ({CH2CO}-[ξY][NMeA]N[ξP][Dap]EPWSW[NMeNle][NMeNle]RCG-NH2; thioether N-14)
